The values below come from patent US11459339B2, “Biaryl derivative, preparation method thereof and pharmaceutical application thereof” (Abbisko Therapeutics Co., Ltd., priority 2018, dated 2022).

The target in experiment [1] is interaction between PD-1 and PD-L1 expressed on cell surfaces (Homo sapiens (Human), UniProt Q9NZQ7). The experiment is described as follows: Jurkat reporter gene cellular assay (Jurkat/NF-κB-luc/PD1 cells cocultured with Raji-PD-L1 cells, OKT-3 stimulation). It counts as cell-based. Conditions: NF-κB-luc reporter activation fold, 6 hrs; read-out: Cell Activity EC50. On the procedure: B. Jurkat Reporter Gene Cellular Assay
Chain of interaction between PD-1 and PD-L1 expressed on cell surfaces (Q9NZQ7 19-290): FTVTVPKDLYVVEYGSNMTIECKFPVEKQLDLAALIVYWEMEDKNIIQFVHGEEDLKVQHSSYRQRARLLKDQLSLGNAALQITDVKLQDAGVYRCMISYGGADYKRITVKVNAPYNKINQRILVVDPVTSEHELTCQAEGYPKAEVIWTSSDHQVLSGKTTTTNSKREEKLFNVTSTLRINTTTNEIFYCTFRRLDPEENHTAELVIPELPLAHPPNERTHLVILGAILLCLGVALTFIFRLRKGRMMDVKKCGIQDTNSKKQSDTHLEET
The effect of compounds of the examples of the present invention and positive compounds on the interaction between PD-1 and PD-L1 expressed on cell surfaces, and the related influence on T cell functions, were determined by a Jurkat reporter gene cellular assay.
Briefly, the reporter gene plasmid of NF-κB-luc and the plasmid of human PD-1 were transfected into Jurkat cells to establish a stably transfected cell line capable of stably expressing both PD-1 and NF-κB-Luc reporter genes; the expression level of PD-1 on the cell surface was confirmed by flow cytometry: and the expression of the reporter gene was confirmed via the response of the reporter gene stimulated by OKT-3 and Raiji cells.
In addition, the plasmid of human PD-L1 was transfected into Raji cells to obtain a cell line capable of stably expressing PD-L1. Jurkat/NF-κB-luc/PD1 cells and Raji-PD-L1 cells were then cocultured and stimulated with OKT-3. On this basis, the compounds were added, and the enhancement of the signal pathway of T cell activation by the inhibitory effect of the compounds on the interaction between PD-1 and PD-L1 was evaluated by readings of reporter gene responses. The specific experimental process was as follows:
2. 20 μL of Raji-PD-L1 cell suspension was added to each well with 5*10^4 cells for each well, and was incubated in an incubator for 20 min;
3. 20 μL of Jurkat/NF-κb-luc/PD-1 cell suspension was added to each well with 5*10^4 cells for each well, and well mixed, and 6 hrs later, Bright-glo (Promega, E2620) was applied and plates were read on Envision;
4. the reading of each well treated with the compound was compared with the reading of each well treated with DMSO to obtain the activation fold of the compound; and
5. EC50 values of compounds and positive compounds of the examples of the present invention were determined by non-linear regression analysis of activation folds at different compound concentrations.
For orientation: Reporter assays use an easily measured gene product as a stand-in for the process of interest.

For experiment [2], the target named is interaction between PD-1 and PD-L1 (Homo sapiens (Human), UniProt Q9NZQ7). Kind of experiment: PD1-PDL1 HTRF binding activity test (Cisbio PD-1/PD-L1 binding assay kit). Particulars: read-out: PD1-PDL1 HTRF Binding Activity IC50. On the procedure: A. PD1-PDL1 HTRF Binding Activity Test
Chain of interaction between PD-1 and PD-L1 (Q9NZQ7 19-238): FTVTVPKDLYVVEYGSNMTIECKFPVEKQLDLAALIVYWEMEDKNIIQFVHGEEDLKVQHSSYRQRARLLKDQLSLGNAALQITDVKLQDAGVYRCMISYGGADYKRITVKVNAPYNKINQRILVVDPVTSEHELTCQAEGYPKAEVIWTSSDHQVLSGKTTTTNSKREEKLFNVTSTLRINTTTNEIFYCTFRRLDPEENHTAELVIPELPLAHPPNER
The effect of compounds and positive compounds of the examples of the present invention on the interaction between PD-1 and PD-L1 was determined by the PD-1/PD-L1 binding assay kit from Cisbio (#64ICP01PEG or 64ICP01PEH). The detailed experimental process was as follows:
1. Pre-diluted compound solution, 4 μL of Tag1-PD-L1 and 4 μL of Tag2-PD1 were added to each well of a 384-well plate;
3. After incubated for 2 hrs at room temperature or overnight at 4° C., plates were read on Envision of Pelkin Elmer; and readings at 665 nm and 620 nm were recorded, and the ratio of the two readings was taken as a reading for each well;
4. The reading of each well after compound treatment was compared with the reading of DMSO treated wells to obtain the percent inhibition of the compound; and
5. IC50 values of compounds and positive compounds of the examples of the present invention were determined by non-linear regression analysis of percent inhibition at different compound concentrations.
For orientation: TR-FRET usually uses a lanthanide donor and a delayed reading to cut background.

For `COc1cc(C(=O)Nc2cccc(-c3cccc(NC(=O)c4cc(OC)c(CN[C@H](CO)C(=O)O)cn4)c3C)c2C)ncc1CN[C@H](CO)C(=O)O` [Example 2, (2R,2′R)-2,2′-((((((2,2′-dimethyl-[1,1′-biphenyl]-3,3′-diyl)bis (azanediyl))bis(carbonyl))bis(4-methoxypyridine-6,3-diyl))bis(methylene))bis (azanediyl))bis(3-hydroxypropanoic acid)], the EC50 in experiment [1] was 109 nM. The IC50 in experiment [2] amounted to 0.18 nM.
Consider `Cc1c(NC(=O)c2ccc(CN[C@H](CO)C(=O)O)cn2)cccc1-c1cccc(NC(=O)c2ccc(CN[C@H](CO)C(=O)O)cn2)c1C` [Example 6, (2R,2′R)-2,2′-((((((2,2′-dimethyl[1,1′-biphenyl]-3,3′-diyl)bis(azanediyl))bis(carbonyl))bis(pyridine-6,3-diyl))bis(methylene))bis(azanediyl))bis (3-hydroxypropanoic acid)], for which the EC50 in experiment [1] worked out at 658 nM. In addition, in experiment [2], the IC50 was found to be 0.79 nM.
On to `COCCNCc1cnc(C(=O)Nc2cccc(-c3cccc(NC(=O)c4cc(C)c(CNCCOC)cn4)c3C)c2C)cc1C` [Example 7, N,N′-(2,2′-dimethyl-[1,1′-biphenyl]-3,3′-diyl)bis(5-(((2-methoxyethyl)amino)methyl)-4-methylpicolinamide)], for which, in experiment [1], the EC50 was 139 nM. Also, the IC50 in experiment [2] was 0.096 nM.
For `Cc1cc(C(=O)Nc2cccc(-c3cccc(NC(=O)c4cc(C)c(CN5CCOCC5)cn4)c3C)c2C)ncc1CN1CCOCC1` [Example 9, N,N′-(2,2′-dimethyl-[1,1′-biphenyl]-3,3′-diyl)bis(4-methyl-5-(morpholinomethyl)picolinamide)], in that order: > 10000 nM and 3.8 nM.
For the compound `Cc1cc(C(=O)Nc2cccc(-c3cccc(NC(=O)c4cc(C)c(CNCC5(O)CC5)cn4)c3C)c2C)ncc1CNCC1(O)CC1` [Example 10, N,N′-(2,2′-dimethyl-[1,1′-biphenyl]-3,3′-diyl)bis(5-((((1-hydroxycyclopropyl)methyl)amino)methyl)-4-methylpicolinamide)], the EC50 in experiment [1] stood at 50 nM. The IC50 in experiment [2] came out at 0.28 nM.
As for `Cc1cc(C(=O)Nc2cccc(-c3cccc(NC(=O)c4cc(C)c(CN5CC(C)(O)C5)cn4)c3C)c2C)ncc1CN1CC(C)(O)C1` [Example 11, N,N′-(2,2′-dimethyl-[1,1′-biphenyl]-3,3′-diyl)bis(5-((3-hydroxy-3-methylazetidin-1-yl)methyl)-4-methylpicolinamide)], the EC50 in experiment [1] turned out to be 134 nM. In experiment [2], the IC50 was 0.6 nM.
As for `Cc1cc(C(=O)Nc2cccc(-c3cccc(NC(=O)c4cc(C)c(CN5CCCC5)cn4)c3C)c2C)ncc1CN1CCCC1` [Example 12, N,N′-(2,2′-dimethyl-[1,1′-biphenyl]-3,3′-diyl)bis(4-methyl-5-(pyrrolidin-1-ylmethyl)picolinamide)], the 50% effective concentration (EC50) in experiment [1] came to 594 nM. The IC50 in experiment [2] came out at 1.9 nM.
In the same order, the values of `Cc1cc(C(=O)Nc2cccc(-c3cccc(NC(=O)c4cc(C)c(CN5CC[C@@H](O)C5)cn4)c3C)c2C)ncc1CN1CC[C@@H](O)C1` [Example 13, N,N′-(2,2′-dimethyl-[1,1′-biphenyl]-3,3′-diyl)bis(5-(((R)-3-hydroxypyrrolidin-1-yl)methyl)-4-methylpicolinamide)] are 109 nM and 0.13 nM.
For `Cc1cc(C(=O)Nc2cccc(-c3cccc(NC(=O)c4cc(C)c(CN5CCC(F)(F)C5)cn4)c3C)c2C)ncc1CN1CCC(F)(F)C1` [Example 14, N,N′-(2,2′-dimethyl-[1,1′-biphenyl]-3,3′-diyl)bis(5-((3,3-difluoropyrrolidin-1-yl)methyl)-4-methylpicolinamide)], the half-maximal inhibitory concentration (IC50) in experiment [2] is 227 nM.
For `Cc1cc(C(=O)Nc2cccc(-c3cccc(NC(=O)c4cc(C)c(CNC5CC5)cn4)c3C)c2C)ncc1CNC1CC1` [Example 15, N,N′-(2,2′-dimethyl-[1,1′-biphenyl]-3,3′-diyl)bis(5-((cyclopropylamino)methyl)-4-methyipicolinamide)], in experiment [1], the EC50 came to 511 nM. Further, the IC50 in experiment [2] is 0.83 nM.
With `CC(=O)NCCNCc1cnc(C(=O)Nc2cccc(-c3cccc(NC(=O)c4cc(C)c(CNCCNC(C)=O)cn4)c3C)c2C)cc1C` [Example 16, N,N′-(2,2′-dimethyl-[1,1′-biphenyl]-3,3′-diyl)bis(5-(((2-acetamidoethyl)amino)methyl)-4-methylpicolinamide)], the 50% effective concentration (EC50) in experiment [1] was determined as 310 nM. Moreover, in experiment [2], the IC50 is 0.14 nM.
On to `Cc1cc(C(=O)Nc2cccc(-c3cccc(NC(=O)c4cc(C)c(CN5CCNC(=O)C5)cn4)c3C)c2C)ncc1CN1CCNC(=O)C1` [Example 17, N,N′-(2,2′-dimethyl-[1,1′-biphenyl]-3,3′-diyl)bis(4-methyl-5-((3-oxopiperazin-1-yl)methyl)picolinamide)], for which the EC50 in experiment [1] was > 10000 nM. Moreover, the IC50 in experiment [2] amounted to 1.5 nM.
On to `Cc1cc(C(=O)Nc2cccc(-c3cccc(NC(=O)c4cc(C)c(CN[C@@H]5CCOC[C@H]5O)cn4)c3C)c2C)ncc1CN[C@@H]1CCOC[C@H]1O` [Example 18, N,N′-(2,2′-dimethyl-[1,1′-biphenyl]-3,3′-diyl)bis(5-((((3S,4R)-3-hydroxytetrahydro-2H-pyran-4-yl)amino)methyl)-4-methylpicolinamide)], for which the EC50 in experiment [1] came to 209 nM. In experiment [2], the IC50 amounted to 0.34 nM.
Regarding `Cc1cc(C(=O)Nc2cccc(-c3cccc(NC(=O)c4cc(C)c(CN[C@H]5CC[C@H](O)CC5)cn4)c3C)c2C)ncc1CN[C@H]1CC[C@H](O)CC1` [Example 19, N,N′-(2,2′-dimethyl-[1,1′-biphenyl]-3,3′-diyl)bis(5-((((1r,4r)-4-hydroxycyclohexyl)amino)methyl)-4-methylpicolinamide)], in experiment [1], the EC50 was 86 nM. Moreover, the half-inhibitory concentration (IC50) in experiment [2] was 0.15 nM.
In the same order, the values of `COC(=O)[C@@H](CO)NCc1cnc(C(=O)Nc2cccc(-c3cccc(NC(=O)c4cc(C)c(CN[C@H](CO)C(=O)OC)cn4)c3C)c2C)cc1C` [Example 20, dimethyl 2,2′-((((((2,2′-dimethyl-[1,1′-biphenyl]-3,3′-diyl)bis (azanediyl))bis(carbonyl))bis(4-methylpyridine-6,3-diyl))bis(methylene))bis(azanediyl))(2R,2′R)-bis(3-hydroxypropanoate)] are 4220 nM and 0.36 nM.
As to `Cc1cc(C(=O)Nc2cccc(-c3cccc(NC(=O)c4cc(C)c(CN[C@H](CO)C(=O)O)cn4)c3C)c2C)ncc1CN[C@H](CO)C(=O)O` [Example 21, (2R,2′R)-2,2′-((((((2,2′-dimethyl-[1,1′-biphenyl]-3,3′-diyl)bis(azanediyl))bis(carbonyl))bis(4-methylpyridine-6,3-diyl))bis(methylene))bis(azanediyl)) bis(3-hydroxypropaitoic acid)], the EC50 in experiment [1] stood at 83 nM. Moreover, the IC50 in experiment [2] is 0.66 nM.
In the same order, the values of `COC(=O)[C@H](CO)NCc1cnc(C(=O)Nc2cccc(-c3cccc(NC(=O)c4cc(C)c(CN[C@@H](CO)C(=O)OC)cn4)c3C)c2C)cc1C` [Example 22, dimethyl 2,2′-((((((2,2′-dimethyl-[1,1′-biphenyl]-3,3′-diyl)bis(azanediyl))bis(carbonyl))bis(4-methylpyridine-6,3-diyl))bis(methylene))bis(azanediyl)) (2S,2′S)-bis(3-hydroxypropanoate)] are 5170 nM and 0.28 nM.
As for `Cc1cc(C(=O)Nc2cccc(-c3cccc(NC(=O)c4cc(C)c(CN[C@@H](CO)C(=O)O)cn4)c3C)c2C)ncc1CN[C@@H](CO)C(=O)O` [Example 23, (2S,2′S)-2,2′-((((((2,2′-dimethyl-[1,1′-biphenyl]3,3′-diyl)bis(azanediyl))bis(carbonyl))bis(4-methylpyridine-6,3-diyl))bis(methylene))bis(azanediyl))bis (3-hydroxypropanoic acid)], the EC50 in experiment [1] was found to be 249 nM. In experiment [2], the IC50 turned out to be 0.31 nM.
`COc1cc(C(=O)Nc2cccc(-c3cccc(NC(=O)c4cc(OC)c(CN5CC6(CCO6)C5)cn4)c3C)c2C)ncc1CN1CC2(CCO2)C1` [Example 57]: the IC50 in experiment [2] was 0.36 nM.

What is called EC50 is the midpoint of the concentration-response curve. The IC50 is the concentration that inhibits the measured activity by half.
